Experimental data taken from article PMC5218480 (PLoS ONE, 2017).

System: MV-4-11 cells
Assay: Gene expression microarray analysis (Affymetrix PrimeView) and GSEA
Format: cell-based, human
Parameters: RFU PODN (11730768_x_at) / Fold change /veh PODN (11730768_x_at) / RFU LINC00158 (11744669_a_at) / Fold change /veh LINC00158 (11744669_a_at) / RFU DUSP10 (11751237_a_at) / Fold change /veh DUSP10 (11751237_a_at) / RFU ID3 (11757404_x_at) / Fold change /veh ID3 (11757404_x_at) / RFU PLEKHG5 (11737974_s_at) / Fold change /veh PLEKHG5 (11737974_s_at) / RFU LRRC4B (11730491_at) / Fold change /veh LRRC4B (11730491_at) / RFU GIMAP4 (11747438_a_at) / Fold change /veh GIMAP4 (11747438_a_at) / RFU KRT8 (11758183_x_at) / Fold change /veh KRT8 (11758183_x_at) / RFU CNN1 (11734310_a_at) / Fold change /veh CNN1 (11734310_a_at) / RFU VPS37D (11726825_at) / Fold change /veh VPS37D (11726825_at) / RFU C10orf10 (11716522_x_at) / Fold change /veh C10orf10 (11716522_x_at) / RFU KIR2DL2 /// KIR2DL4 /// KIR2DL5A /// KIR2DL5B /// KIR2DS1 /// KIR2DS2 /// KIR2DS3 /// KIR2DS4 /// KIR3DL3 /// KIR3DL3 /// KIR3DS1 (11738374_at) / Fold change /veh KIR2DL2 /// KIR2DL4 /// KIR2DL5A /// KIR2DL5B /// KIR2DS1 /// KIR2DS2 /// KIR2DS3 /// KIR2DS4 /// KIR3DL3 /// KIR3DL3 /// KIR3DS1 (11738374_at) / RFU C1QL1 (11718748_at) / Fold change /veh C1QL1 (11718748_at) / RFU TMPRSS4 (11747572_a_at) / Fold change /veh TMPRSS4 (11747572_a_at) / RFU HAMP (11756126_x_at) / Fold change /veh HAMP (11756126_x_at) / RFU RNFT2 (11725882_a_at) / Fold change /veh RNFT2 (11725882_a_at) / RFU NR4A2 (11747474_a_at) / Fold change /veh NR4A2 (11747474_a_at) / RFU ABCC12 (11746883_a_at) / Fold change /veh ABCC12 (11746883_a_at) / RFU TMEM136 (11760407_x_at) / Fold change /veh TMEM136 (11760407_x_at) / RFU CLDN22 /// WWC2 (11732394_at) / Fold change /veh CLDN22 /// WWC2 (11732394_at) / RFU HLA-DPB1 (11760878_x_at) / Fold change /veh HLA-DPB1 (11760878_x_at) / RFU SPINT1 (11716480_a_at) / Fold change /veh SPINT1 (11716480_a_at) / RFU GAP43 (11754022_s_at) / Fold change /veh GAP43 (11754022_s_at) / RFU A4GNT (11735810_at) / Fold change /veh A4GNT (11735810_at) / RFU PRB3 (11715151_x_at) / Fold change /veh PRB3 (11715151_x_at) / RFU TUBB4B (11761932_at) / Fold change /veh TUBB4B (11761932_at) / RFU CAPN14 (11732068_a_at) / Fold change /veh CAPN14 (11732068_a_at) / RFU TMCC2 (11721928_a_at) / Fold change /veh TMCC2 (11721928_a_at) / RFU IRGQ (11745062_a_at) / Fold change /veh IRGQ (11745062_a_at) / RFU FAM174B (11720279_a_at) / Fold change /veh FAM174B (11720279_a_at) / RFU TMPRSS4 (11748680_a_at) / Fold change /veh TMPRSS4 (11748680_a_at) / RFU FAM212B (11763350_a_at) / Fold change /veh FAM212B (11763350_a_at) / RFU PLEKHG5 (11743358_a_at) / Fold change /veh PLEKHG5 (11743358_a_at) / RFU ZSCAN30 (11745921_a_at) / Fold change /veh ZSCAN30 (11745921_a_at) / RFU CMKLR1 (11741424_a_at) / Fold change /veh CMKLR1 (11741424_a_at) / RFU LOC101060620 /// MAPK8IP1 (11723275_at) / Fold change /veh LOC101060620 /// MAPK8IP1 (11723275_at) / RFU SPTSSB (11747773_x_at) / Fold change /veh SPTSSB (11747773_x_at) / RFU PRSS12 (11739890_at) / Fold change /veh PRSS12 (11739890_at) / RFU BIN1 (11741810_x_at) / Fold change /veh BIN1 (11741810_x_at) / RFU WNT11 (11732464_a_at) / Fold change /veh WNT11 (11732464_a_at) / RFU C10orf10 (11716521_a_at) / Fold change /veh C10orf10 (11716521_a_at) / RFU C5orf56 (11738089_at) / Fold change /veh C5orf56 (11738089_at) / RFU CYB561 (11721691_x_at) / Fold change /veh CYB561 (11721691_x_at) / RFU ANKRD19P (11752326_a_at) / Fold change /veh ANKRD19P (11752326_a_at) / RFU OR2T12 /// OR2T33 /// OR2T8 (11738714_s_at) / Fold change /veh OR2T12 /// OR2T33 /// OR2T8 (11738714_s_at) / RFU VCAN (11748164_a_at) / Fold change /veh VCAN (11748164_a_at) / RFU JSRP1 (11732532_at) / Fold change /veh JSRP1 (11732532_at) / RFU KRTAP10-11 (11738290_x_at) / Fold change /veh KRTAP10-11 (11738290_x_at) / RFU MYO3A (11730013_a_at) / Fold change /veh MYO3A (11730013_a_at) / RFU EBF3 (11725865_a_at) / Fold change /veh EBF3 (11725865_a_at) / RFU CAMK2N1 (11719241_x_at) / Fold change /veh CAMK2N1 (11719241_x_at) / RFU C5orf56 (11738088_a_at) / Fold change /veh C5orf56 (11738088_a_at) / RFU OLFML3 (11715873_a_at) / Fold change /veh OLFML3 (11715873_a_at) / RFU LOC100653217 /// NTM (11731650_a_at) / Fold change /veh LOC100653217 /// NTM (11731650_a_at) / RFU MAPK11 (11762145_a_at) / Fold change /veh MAPK11 (11762145_a_at) / RFU FIZ1 (11724087_x_at) / Fold change /veh FIZ1 (11724087_x_at) / RFU OASL (11726364_x_at) / Fold change /veh OASL (11726364_x_at) / RFU SOX15 (11748057_x_at) / Fold change /veh SOX15 (11748057_x_at) / RFU CD79A (11719716_a_at) / Fold change /veh CD79A (11719716_a_at) / RFU HIST1H1D (11736915_at) / Fold change /veh HIST1H1D (11736915_at) / RFU CASKIN2 (11723855_a_at) / Fold change /veh CASKIN2 (11723855_a_at) / RFU LOC730098 (11760151_x_at) / Fold change /veh LOC730098 (11760151_x_at) / RFU OR4N2 (11742367_at) / Fold change /veh OR4N2 (11742367_at) / RFU PRRT2 (11749266_a_at) / Fold change /veh PRRT2 (11749266_a_at) / RFU SNX32 (11753110_a_at) / Fold change /veh SNX32 (11753110_a_at) / RFU CDHR5 (11726645_a_at) / Fold change /veh CDHR5 (11726645_a_at) / RFU RCAN1 (11760418_a_at) / Fold change /veh RCAN1 (11760418_a_at) / RFU FAM167A (11723789_a_at) / Fold change /veh FAM167A (11723789_a_at) / RFU FAM26E (11764081_at) / Fold change /veh FAM26E (11764081_at) / RFU ISYNA1 (11749810_s_at) / Fold change /veh ISYNA1 (11749810_s_at) / RFU ACY1 (11761880_at) / Fold change /veh ACY1 (11761880_at) / RFU 11764098_at / Fold change /veh 11764098_at / RFU SAMD14 (11745864_x_at) / Fold change /veh SAMD14 (11745864_x_at) / RFU NPB (11741838_a_at) / Fold change /veh NPB (11741838_a_at) / RFU TMPRSS6 (11731388_a_at) / Fold change /veh TMPRSS6 (11731388_a_at) / RFU KRTAP10-2 (11738614_at) / Fold change /veh KRTAP10-2 (11738614_at) / RFU ARHGAP8 /// PRR5-ARHGAP8 (11727945_x_at) / Fold change /veh ARHGAP8 /// PRR5-ARHGAP8 (11727945_x_at) / RFU KRTAP5-7 /// NADSYN1 (11734609_at) / Fold change /veh KRTAP5-7 /// NADSYN1 (11734609_at) / RFU RASL12 (11751679_a_at) / Fold change /veh RASL12 (11751679_a_at) / RFU CDKN2B (11736163_a_at) / Fold change /veh CDKN2B (11736163_a_at) / RFU PRF1 (11729649_at) / Fold change /veh PRF1 (11729649_at) / RFU, ZNF638 /// ZNF638-IT1 / Fold change vs veh, ZNF638 /// ZNF638-IT1 / RFU, PANK3 / Fold change vs veh, PANK3 / RFU, SH3YL1 / Fold change vs veh, SH3YL1 / RFU, ZEB2 / Fold change vs veh, ZEB2 / RFU, NRIP1 / Fold change vs veh, NRIP1 / RFU, PTTG1IP / Fold change vs veh, PTTG1IP / RFU, CAPN2 / Fold change vs veh, CAPN2 / RFU, MED14 / Fold change vs veh, MED14 / RFU, SNORA58 / Fold change vs veh, SNORA58 / RFU, C1orf63 / Fold change vs veh, C1orf63 / RFU, LRRFIP1 / Fold change vs veh, LRRFIP1 / RFU, NDUFAF7 / Fold change vs veh, NDUFAF7 / RFU, SLC12A2 / Fold change vs veh, SLC12A2 / RFU, IBTK / Fold change vs veh, IBTK / RFU, ESF1 / Fold change vs veh, ESF1 / Fold change vs veh, TMEM50B / RFU, TAOK1 / Fold change vs veh, TAOK1 / RFU, ACBD3 / Fold change vs veh, ACBD3 / RFU, TMA16 / Fold change vs veh, TMA16 / RFU, RWDD3 / Fold change vs veh, RWDD3 / RFU, BCAT1 / Fold change vs veh, BCAT1 / RFU, EDEM3 / Fold change vs veh, EDEM3 / RFU, TMEM33 / Fold change vs veh, TMEM33 / RFU, WDR75 / Fold change vs veh, WDR75 / RFU, AHCTF1 / Fold change vs veh, AHCTF1 / RFU, TFRC / Fold change vs veh, TFRC / RFU, ZDHHC17 / Fold change vs veh, ZDHHC17 / RFU, NOM1 / Fold change vs veh, NOM1 / RFU, ARL8B / Fold change vs veh, ARL8B / RFU, ZBTB11 / Fold change vs veh, ZBTB11 / RFU, TAMM41 / Fold change vs veh, TAMM41 / RFU, KIAA1704 /// LOC100996395 / Fold change vs veh, KIAA1704 /// LOC100996395 / RFU, ING1 / Fold change vs veh, ING1 / RFU, TRMT61B / Fold change vs veh, TRMT61B / RFU, FUBP3 / Fold change vs veh, FUBP3 / RFU, TP53 / Fold change vs veh, TP53 / RFU, TNKS2 / Fold change vs veh, TNKS2 / RFU, ZFP14 / Fold change vs veh, ZFP14 / RFU, ACTR2 / Fold change vs veh, ACTR2 / RFU, PPP3R1 / Fold change vs veh, PPP3R1 / RFU, PIK3R1 / Fold change vs veh, PIK3R1 / RFU, HNRNPA1 / Fold change vs veh, HNRNPA1 / RFU, RNF170 / Fold change vs veh, RNF170 / RFU, ZNF28 / Fold change vs veh, ZNF28 / RFU, RNGTT / Fold change vs veh, RNGTT / RFU, OGT / Fold change vs veh, OGT / RFU, BRD1 / Fold change vs veh, BRD1 / RFU, MARS / Fold change vs veh, MARS / RFU, ZNF655 / Fold change vs veh, ZNF655 / RFU, FAHD1 / Fold change vs veh, FAHD1 / RFU, BDP1 / Fold change vs veh, BDP1 / RFU, LRRCC1 / Fold change vs veh, LRRCC1 / RFU, ARID1A / Fold change vs veh, ARID1A / RFU, ZNF146 / Fold change vs veh, ZNF146 / RFU, ZNF330 / Fold change vs veh, ZNF330 / RFU, GPN3 / Fold change vs veh, GPN3 / RFU, C9orf123 / Fold change vs veh, C9orf123 / RFU, N4BP2L2 / Fold change vs veh, N4BP2L2 / RFU, ARFIP1 / Fold change vs veh, ARFIP1 / RFU, FAM179B / Fold change vs veh, FAM179B / RFU, BCL10 / Fold change vs veh, BCL10 / RFU, UHRF1BP1L / Fold change vs veh, UHRF1BP1L / RFU, BET1 / Fold change vs veh, BET1 / RFU, CNOT2 / Fold change vs veh, CNOT2 / RFU, ZNF268 / Fold change vs veh, ZNF268 / Fold change vs veh, ZNF507 / RFU, DGCR2 / Fold change vs veh, DGCR2 / RFU, WDSUB1 / Fold change vs veh, WDSUB1 / Fold change vs veh, HSP90B1 /// MIR3652 / RFU, ADSS / Fold change vs veh, ADSS / RFU, GK / Fold change vs veh, GK / RFU, ZNF148 / Fold change vs veh, ZNF148 / RFU, TAF9 / Fold change vs veh, TAF9 / RFU, SLC1A5 / Fold change vs veh, SLC1A5 / RFU, SLMO2 / Fold change vs veh, SLMO2 / RFU, ABCC4 / Fold change vs veh, ABCC4 / RFU, LOC101060439 /// RAP1B / Fold change vs veh, LOC101060439 /// RAP1B / RFU, RFX7 / Fold change vs veh, RFX7 / RFU, GTPBP10 / Fold change vs veh, GTPBP10 / RFU, CNEP1R1 / Fold change vs veh, CNEP1R1 / RFU, BIVM-ERCC5 /// ERCC5 / Fold change vs veh, BIVM-ERCC5 /// ERCC5 / RFU, ILF3 / Fold change vs veh, ILF3 / RFU 11762660_at / Fold change /veh 11762660_at / RFU VCAN (11757783_s_at) / Fold change /veh VCAN (11757783_s_at) / RFU DDX43 (11728927_at) / Fold change /veh DDX43 (11728927_at) / RFU KRT8 (11758188_x_at) / Fold change /veh KRT8 (11758188_x_at) / RFU NKD1 (11759106_at) / Fold change /veh NKD1 (11759106_at) / RFU SRD5A1 (11742802_a_at) / Fold change /veh SRD5A1 (11742802_a_at) / RFU TPSAB1 /// TPSB2 (11721975_s_at) / Fold change /veh TPSAB1 /// TPSB2 (11721975_s_at) / RFU GSTM3 (11746129_a_at) / Fold change /veh GSTM3 (11746129_a_at) / RFU IL23R (11737362_x_at) / Fold change /veh IL23R (11737362_x_at) / RFU TMEM51 (11727254_a_at) / Fold change /veh TMEM51 (11727254_a_at) / RFU PIWIL2 (11732686_x_at) / Fold change /veh PIWIL2 (11732686_x_at) / RFU ORM1 (11744905_x_at) / Fold change /veh ORM1 (11744905_x_at) / RFU CCDC152 (11743942_at) / Fold change /veh CCDC152 (11743942_at) / RFU ECM1 (11717891_a_at) / Fold change /veh ECM1 (11717891_a_at) / RFU IL23R (11748794_a_at) / Fold change /veh IL23R (11748794_a_at) / RFU TNFAIP8L3 (11732012_x_at) / Fold change /veh TNFAIP8L3 (11732012_x_at) / RFU MBOAT4 (11741988_at) / Fold change /veh MBOAT4 (11741988_at) / RFU 11764193_at / Fold change /veh 11764193_at / RFU TMEM53 (11763286_at) / Fold change /veh TMEM53 (11763286_at) / RFU MAGEB2 (11727129_at) / Fold change /veh MAGEB2 (11727129_at) / RFU TMEM200A (11744735_a_at) / Fold change /veh TMEM200A (11744735_a_at) / RFU CCDC152 (11751479_a_at) / Fold change /veh CCDC152 (11751479_a_at) / RFU FAM211A (11726209_a_at) / Fold change /veh FAM211A (11726209_a_at) / RFU RGS16 (11746705_a_at) / Fold change /veh RGS16 (11746705_a_at) / RFU VCAN (11755009_s_at) / Fold change /veh VCAN (11755009_s_at) / RFU RHOB (11743442_s_at) / Fold change /veh RHOB (11743442_s_at) / RFU RGS16 (11720943_a_at) / Fold change /veh RGS16 (11720943_a_at) / RFU RGS16 (11720944_at) / Fold change /veh RGS16 (11720944_at) / RFU, VPS4B / Fold change vs veh, VPS4B / RFU, CREB1 / Fold change vs veh, CREB1 / RFU, DNAJC13 / Fold change vs veh, DNAJC13 / RFU, GNAQ / Fold change vs veh, GNAQ / RFU, CDK5R1 / Fold change vs veh, CDK5R1 / RFU, ZRANB3 / Fold change vs veh, ZRANB3 / RFU, CUL4A / Fold change vs veh, CUL4A / RFU, CCNY / Fold change vs veh, CCNY / RFU, UFL1 / Fold change vs veh, UFL1 / RFU, COG3 / Fold change vs veh, COG3 / RFU, DIAPH2 / Fold change vs veh, DIAPH2 / RFU, SKA2 / Fold change vs veh, SKA2 / RFU, AFF3 / Fold change vs veh, AFF3 / RFU, LMF1 / Fold change vs veh, LMF1 / RFU, IPO11 / Fold change vs veh, IPO11 / RFU, DFFB / Fold change vs veh, DFFB / RFU, FOXP1 / Fold change vs veh, FOXP1 / RFU, CARD8 / Fold change vs veh, CARD8 / RFU, STRN3 / Fold change vs veh, STRN3 / RFU, ADK / Fold change vs veh, ADK / RFU, RASSF2 / Fold change vs veh, RASSF2 / RFU, WIPF1 / Fold change vs veh, WIPF1 / RFU, LARP1B / Fold change vs veh, LARP1B / RFU, RASA1 / Fold change vs veh, RASA1 / RFU, RB1 / Fold change vs veh, RB1 / RFU, PPFIA1 / Fold change vs veh, PPFIA1 / RFU, MAT2A / Fold change vs veh, MAT2A / RFU, CCT5 / Fold change vs veh, CCT5 / RFU, WDR92 / Fold change vs veh, WDR92 / RFU, CUX1 / Fold change vs veh, CUX1 / RFU, TTC7A / Fold change vs veh, TTC7A / RFU, TMEM135 / Fold change vs veh, TMEM135 / RFU, DEPTOR / Fold change vs veh, DEPTOR / RFU, CPM / Fold change vs veh, CPM / RFU, DNAJB6 / Fold change vs veh, DNAJB6 / RFU, CACNA2D3 / Fold change vs veh, CACNA2D3 / RFU, DTX4 / Fold change vs veh, DTX4 / RFU, TFCP2 / Fold change vs veh, TFCP2 / RFU, GMCL1 /// GMCL1P1 / Fold change vs veh, GMCL1 /// GMCL1P1 / RFU, AEBP2 / Fold change vs veh, AEBP2 / RFU, SNHG1 /// SNORD22 /// SNORD25 /// SNORD26 /// SNORD27 /// SNORD28 /// SNORD29 /// SNORD31 / Fold change vs veh, SNHG1 /// SNORD22 /// SNORD25 /// SNORD26 /// SNORD27 /// SNORD28 /// SNORD29 /// SNORD31 / Fold change (Aza/veh), C12orf56 (ProbeSet 11735607_a_at) / Fold change (ACY-1035/veh), C12orf56 (ProbeSet 11735607_a_at) / Fold change (Aza/veh), FGFR1OP (ProbeSet 11751329_s_at) / Fold change (ACY-1035/veh), FGFR1OP (ProbeSet 11751329_s_at) / Fold change (Aza/veh), VPS36 (ProbeSet 11739960_a_at) / Fold change (ACY-1035/veh), VPS36 (ProbeSet 11739960_a_at) / RFU SYPL1 (11715823_x_at) / Fold change /veh SYPL1 (11715823_x_at) / RFU IGFBP7 (11715501_s_at) / Fold change /veh IGFBP7 (11715501_s_at) / RFU REEP3 (11722064_at) / Fold change /veh REEP3 (11722064_at) / RFU IGLL1 (11728026_x_at) / Fold change /veh IGLL1 (11728026_x_at): dose or concentration left out as unconfirmed
Details: ProbeSet 11719185_x_at; LIST B

## Nc1ccc(-c2cccs2)cc1NC(=O)c1ccc2c(c1)cc(C1CC1)n2CCN1CCOCC1 [ACY-1035]
  RFU, N4BP2L2: 104.68 RFU
